System: Peripheral blood mononuclear cells (pBMC) from a patient with chronic lymphatic leukaemia
Experiment: Cytotoxicity of fludarabine phosphate on mononuclear cells, flow cytometry with fixed volume acquisition (PI exclusion)
Format: cell-based, human
Details: 96 h; for relative cell survival: 100% = without fludarabine phosphate
Procedure: The peripheral blood mononuclear cells (pBMC) used in the examples were isolated from peripheral blood samples as described before (Staib, P. et al., Br. J. Haematol., 128(6):783-91 (2005)). The necessary peripheral blood (PB) samples from adult patients diagnosed with chronic lymphatic leukaemia (CLL) were collected into heparin during routine diagnosis prior to administration of chemotherapy.
Plate precoating with different amounts of fludarabine phosphate: 50 μl/well of an aqueous fludarabine phosphate solution were given in a 96-well microtiter plate (Greiner BioOne, Frickenhausen, Germany). Four different fludarabine phosphate concentrations (25; 8.33; 2.78; 0.93 μg/ml) were used. The control wells were kept empty. The plates were placed into an exsiccator and dried under vacuum for 8 h.
Peripheral blood mononuclear cells (pBMC) from a patient with chronic lymphatic leukaemia were isolated from the PB samples as described before (Staib, P. et al., Br. J. Haematol., 128(6):783-91 (2005)), resuspended in RPMI 1640 medium (Biochrom, Berlin, Germany) containing 20 vol. % fetal calf serum (FCS; Biochrom, Berlin, Germany) and added into the precoated 96-well plate with a final cell concentration of 10,000 cells/well and a volume of 100 μl. The plates were then agitated for 15 min in order to solubilize the dried fludarabine phosphate. Subsequently, the plates were incubated for 96 h (37° C., 5% CO2, humidified atmosphere). Thereafter, 50 μl of an 11 μM propidium iodide (PI)-solution in 0.9% aqueous NaCl solution (NaCl 0.9%) (Invitrogen, Leiden, Netherlands) were added and incubated for 15 min at room temperature. PI is a standard flow cytometric viability probe and is used to distinguish viable from nonviable cells. Viable cells with intact membranes exclude PI, whereas the membranes of dead and damaged cells are permeable to PI. PI only stains cells with compromised cell membrane, whilst live cells which have intact membranes are not stained by PI.
The plates were then analyzed using a FACSArray (BD Biosciences, San Jose, Calif., USA) flow cytometer. The following instrument settings were used:
2.0 μl/s sample flow rate
20 μl sample volume (n. b.: this is no absolute amount, but the set value of the instrument. Thus, the actual volume aspirated and analyzed by the instrument may be higher or lower than 20 μl: however, this actual volume is invariant from sample to sample during the analysis.)
500,000 maximum events (i.e. the number of maximum events exceeds the actual cell number in the sample considerably)
An identical fixed volume (preset sample volume on instrument: 20 μl) was aspirated from each sample and the absolute amount of living cells was counted. Living cells were defined as events with cellular light scatter characteristics and being negative for PI.
After switch-on and before analyzing a new kind of sample the flow cytometer must be re-calibrated. […] In addition cut-off values can be defined. Signals below this cut-off will be excluded from data acquisition. All cells with signal intensities above the cut-off are counted. The rectangle shown in FIG. 1 defines an area of signal intensities (FSC signal and PI signal) that is suitable for counting viable cells. All cells within this rectangle are counted.

[1] = 12.50 μg/ml final concentration

In the case of `Nc1nc(F)nc2c1ncn2[C@@H]1O[C@H](COP(=O)(O)O)[C@@H](O)[C@@H]1O` [Fludarabine phosphate, 2-Fluoro-9-(5-O-phosphono-β-D-arabinofuranosyl)-9H-purin-6-amine], the “Total living cells counted in the fixed volume” value (“Total living cells counted” for short) (0.46 μg/ml final concentration) is reported as 1,725, the relative cell survival (0.46 μg/ml final concentration) is reported as 41% and the “Total living cells counted” value (1.39 μg/ml final concentration) is reported as 758. The relative cell survival (1.39 μg/ml final concentration) was 18%, the “Total living cells counted” value (4.17 μg/ml final concentration) was 347 and the relative cell survival (4.17 μg/ml final concentration) was 8%. The “Total living cells counted” value [1] was 186, the relative cell survival [1] was 4% and the relative cell survival (12.50 μg/ml final concentration, listed as fludarabine phosphate) was 4%.

Source: patent US20100075370A1, “METHOD FOR DETERMINATION OF CELL VIABILITY BY USING FLOW CYTOMETRY WITH FIXED VOLUME ACQUISITION” (TUMORTEC GMBH, priority 2006, published 2010)
